Source: US9486466B2, “Veliparib in combination with carboplatin for the treatment of triple negative breast cancer” (AbbVie Inc., priority 2013, dated 2016)

Tested on: early-stage triple negative breast cancer
Test: Phase 2 randomized open label study of veliparib and carboplatin with standard neoadjuvant chemotherapy; pathologic complete response
Format: in vivo, human
Description: Pathological Complete Response (pCR) is the absence of any residual invasive cancer on hematoxylin and eosin evaluation of the resected breast specimen and any resected lymph node tissue following completion of neoadjuvant systemic therapy.
This example is a Phase 2, interventional, randomized, open label study evaluating the safety and efficacy of veliparib and carboplatin administered concurrently with standard chemotherapy in subjects with early-stage triple negative breast cancer.
Patients received 50 mg po bid during the 12 weekly treatment cycles post-randomization and carboplatin: AUC 6 IV every three weeks for […] during the 12 weekly treatment cycles post-randomization with standard chemotherapy or alternatively standard chemotherapy alone. Standard chemotherapy was paclitaxel: 80 mg/m^2 IV during the 12 weekly treatment cycles post randomization; doxorubicin: 60 mg/m^2 IV after completion of the 12 weekly treatment cycles and prior to surgery for weeks 13-16; cyclophosphamide: 600 mg/m^2 IV after completion of the 12 weekly treatment cycles and prior to surgery for weeks 13-16.
Determine whether adding veliparib and carboplatin to standard neoadjuvant medications increases the probability of pathologic complete response (pCR) over standard neoadjuvant chemotherapy for triple negative breast cancer. […]

In the case of `C[C@]1(c2nc3c(C(N)=O)cccc3[nH]2)CCCN1` [Veliparib arm, 2-[(2R)-2-methylpyrrolidin-2-yl]-1H-benzimidazole-4-carboxamide], the pCR % (patients with triple negative breast cancer, neoadjuvant therapy followed by surgery, veliparib arm: veliparib 50 mg po bid + carboplatin AUC 6 IV during the 12 weekly cycles, added to standard chemotherapy (paclitaxel, then doxorubicin/cyclophosphamide), control arm: standard chemotherapy alone) is reported as 56% (n = 39) and the “effect on number of women achieving pCR status” value (veliparib and carboplatin added to standard of care, neoadjuvant setting, early triple negative breast cancer) is reported as “increases the number of women that achieve pCR status”.
